Tests used:
Experiment in all cases: relative viability (nuclei count vs DMSO), 5 days (fraction); higher = more cells survive
[1] = compound: COCC[n+]1c2c(n(Cc3cnccn3)c1C)C(=O)c1ccccc1C2=O [YM155] + Cc1nc(Nc2ncc(C(=O)Nc3c(C)cccc3Cl)s2)cc(N2CCN(CCO)CC2)n1 [Dasatinib] (partner 0.075 µM)
In short: (§1)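 A single step with final 0.05% Triton X-100, 1% formaldehyde and 1 ug/ml Hoechst fixed the cells and stained nuclei 5 days after treatment. Lung cancer cell lines in 1536-well plates had been treated by pin tool the day after seeding with one drug alone or a fixed anchor-drug dose plus five library-drug doses (not always all listed) in √10 steps, and nuclei were counted on 4× images. Relative viability is the ratio of nuclei in treated wells to nuclei in vehicle wells, taken as the median of duplicate plates.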

[2] = compound: COCC[n+]1c2c(n(Cc3cnccn3)c1C)C(=O)c1ccccc1C2=O [YM155] + CCNC(=O)c1noc(-c2cc(C(C)C)c(O)cc2O)c1-c1ccc(CN2CCOCC2)cc1 [Luminespib] (partner 0.01 µM)
In short: as §1

[3] = compound: COCC[n+]1c2c(n(Cc3cnccn3)c1C)C(=O)c1ccccc1C2=O [YM155] + CC1(C)CCC(c2ccc(Cl)cc2)=C(CN2CCN(c3ccc(C(=O)NS(=O)(=O)c4ccc(N[C@H](CCN5CCOCC5)CSc5ccccc5)c(S(=O)(=O)C(F)(F)F)c4)cc3)CC2)C1 [Navitoclax] (partner 0.5 µM)
In short: as §1

[4] = compound: CC(C)(C)c1cc(NC(=O)Nc2ccc(-c3cn4c(n3)sc3cc(OCCN5CCOCC5)ccc34)cc2)no1 [Quizartinib] + C[C@@H](Oc1cc(-c2cnn(C3CCNCC3)c2)cnc1N)c1c(Cl)ccc(F)c1Cl [Crizotinib] (partner 1 µM)
In short: as §1

| Cell Line | relative viability ([1]; first compound 0.002 µM) | relative viability ([1]; first compound 0.006325 µM) | relative viability ([1]; first compound 0.02 µM) | relative viability ([1]; first compound 0.06325 µM) | relative viability ([2]; first compound 0.002 µM) | relative viability ([2]; first compound 0.006325 µM) | relative viability ([2]; first compound 0.02 µM) | relative viability ([2]; first compound 0.06325 µM) | relative viability ([3]; first compound 0.002 µM) | relative viability ([3]; first compound 0.006325 µM) | relative viability ([3]; first compound 0.02 µM) | relative viability ([3]; first compound 0.06325 µM) | relative viability ([4]; first compound 0.001 µM) | relative viability ([4]; first compound 0.003162 µM) | relative viability ([4]; first compound 0.01 µM) | relative viability ([4]; first compound 0.03162 µM) | relative viability ([4]; first compound 0.1 µM) |
| --- | --- | --- | --- | --- | --- | --- | --- | --- | --- | --- | --- | --- | --- | --- | --- | --- | --- |
| NCI-H322M | 0.238 | 0.271 | 0.278 | 0.26 | 0.814 | 0.949 | 0.944 | 0.759 | 1.24 | 1.23 | 1.28 | 1.47 | 0.881 | 0.803 | 0.955 | 0.857 | 0.997 |
| NCI-H358 | 0.139 | 0.145 | 0.161 | 0.156 | 0.222 | 0.374 | 0.352 | 0.311 |  |  |  |  | 0.584 | 0.558 | 0.66 |  | 0.38 |
| NCI-H441 | 0.609 | 0.674 | 0.558 | 0.495 | 0.327 | 0.394 | 0.259 | 0.301 | 0.56 | 0.633 | 0.554 | 0.403 | 0.527 | 0.624 | 0.896 | 0.673 | 0.969 |
| NCI-H522 | 0.877 | 0.818 | 0.915 | 0.9 | 1.21 | 1.1 | 1.04 | 1.28 |  |  |  |  |  |  |  |  |  |
| NCI-H650 | 0.446 | 0.524 | 0.509 | 0.44 | 0.768 | 0.803 | 0.75 | 0.89 |  |  |  |  | 0.684 | 0.525 | 0.772 | 0.628 | 0.749 |
| NCI-H661 | 0.742 | 0.802 | 0.925 | 0.749 | 0.841 | 0.948 | 0.927 | 0.393 |  |  |  |  | 0.905 | 0.998 | 1.07 |  | 0.856 |
| NCI-H1299 |  |  |  |  |  |  |  |  | 1.08 | 0.996 | 1.01 | 1.03 | 0.92 | 0.949 | 1.01 | 0.928 | 0.956 |
| NCI-H1395 | 0.359 | 0.423 | 0.388 | 0.444 | 0.934 | 0.81 | 0.798 | 0.971 | 1.4 | 0.799 | 1.53 | 1.55 |  |  |  |  |  |
| NCI-H1563 | 0.382 | 0.541 | 0.453 | 0.475 | 0.554 | 0.455 | 0.542 | 0.555 |  |  |  |  | 0.825 | 0.851 | 0.982 |  | 0.78 |
| NCI-H1623 | 0.547 | 0.529 | 0.599 | 0.555 | 0.43 | 0.464 | 0.458 | 0.497 |  |  |  |  |  |  |  |  |  |
| NCI-H1703 |  |  |  |  |  |  |  |  | 1.07 | 1.29 | 0.938 | 0.319 | 0.791 | 0.718 | 0.219 | 0.136 | 0.335 |
| NCI-H1793 | 0.366 | 0.443 | 0.338 | 0.34 | 0.234 | 0.24 | 0.333 | 0.189 |  | 0.337 | 0.422 | 0.301 |  |  |  |  |  |
| NCI-H2342 | 0.308 | 0.336 | 0.329 | 0.301 | 0.721 | 0.788 | 0.738 | 0.746 |  |  |  |  |  |  |  |  |  |
| SW 900 | 0.443 | 0.523 | 0.845 | 0.666 | 0.179 | 0.188 | 0.164 | 0.177 |  |  |  |  |  |  |  |  |  |

From the supplement of paper PMC10307832
